{"source": "paper PMC8525588", "about": "“Direct targeting of wild-type glucocerebrosidase by antipsychotic quetiapine improves pathogenic phenotypes in Parkinson’s disease models” (JCI Insight, 2021)", "target": "T1, β-glucocerebrosidase (GCase) (Homo sapiens, UniProt P04062)", "T1 construct": "gene GBA1", "T1 sequence (P04062 40-536)": "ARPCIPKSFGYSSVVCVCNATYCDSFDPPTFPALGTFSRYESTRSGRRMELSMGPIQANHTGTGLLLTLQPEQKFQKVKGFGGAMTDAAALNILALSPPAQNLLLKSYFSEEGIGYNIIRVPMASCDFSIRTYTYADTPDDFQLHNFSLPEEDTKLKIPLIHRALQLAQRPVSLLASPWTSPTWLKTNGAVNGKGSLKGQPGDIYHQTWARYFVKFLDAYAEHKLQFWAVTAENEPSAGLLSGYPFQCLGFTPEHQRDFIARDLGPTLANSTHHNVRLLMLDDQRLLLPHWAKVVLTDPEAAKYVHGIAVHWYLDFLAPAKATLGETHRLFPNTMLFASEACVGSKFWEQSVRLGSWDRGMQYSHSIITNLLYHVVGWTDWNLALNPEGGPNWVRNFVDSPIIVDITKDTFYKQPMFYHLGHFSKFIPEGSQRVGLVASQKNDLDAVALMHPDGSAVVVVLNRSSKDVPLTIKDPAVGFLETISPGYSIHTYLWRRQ", "test": "biochemical", "note": "pKd: −log10 of the molar value.", "data": [{"smiles": "OCCOCCN1CCN(C2=Nc3ccccc3Sc3ccccc32)CC1", "note": "[quetiapine]", "values": [{"measurement": "pKd", "value": 5.30}]}]}
